Laboratory results reported in US10882856B2 (BeiGene, Ltd., priority 2017, dated 2021).
Structures can show the parent of a compound that is named as a salt.

Assays:
[1] = target: T1, IDO1 (Homo sapiens, UniProt P14902); assay: IDO1 enzymatic assay; type: biochemical; parameters: His tag (N); made in house; host or cells: E. coli; conditions: read-out: Enzyme IC50 IDO1
Procedure, shortened: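 Recombinant N-terminally His-tagged IDO1 purified from E. coli (50 nM) was incubated with compound or DMSO and 1.3 mM D-tryptophan, 5 mM L-ascorbic acid, methylene blue and 0.4 mg/mL catalase. The buffer was 50 mM potassium phosphate pH 7.5 with 0.1% BSA, at 24 °C for 1.5 hours. N'-formylkynurenine formation was then read continuously at 321 nm for 1 hour, and activity was taken as the slope. IC50 was calculated from remaining enzyme activity across increasing compound concentrations.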

[2] = target: T2, cellular TDO2 in HEK293-TDO2 cells (Homo sapiens, UniProt P48775); assay: 293-TDO2 cell-based assay (Kyn colorimetric); conditions: 48 hours of incubation
T2 construct: expressed in transfected cells; host or cells: HEK293 (ATCC), stably transfected
T2 sequence (P48775 whole entry): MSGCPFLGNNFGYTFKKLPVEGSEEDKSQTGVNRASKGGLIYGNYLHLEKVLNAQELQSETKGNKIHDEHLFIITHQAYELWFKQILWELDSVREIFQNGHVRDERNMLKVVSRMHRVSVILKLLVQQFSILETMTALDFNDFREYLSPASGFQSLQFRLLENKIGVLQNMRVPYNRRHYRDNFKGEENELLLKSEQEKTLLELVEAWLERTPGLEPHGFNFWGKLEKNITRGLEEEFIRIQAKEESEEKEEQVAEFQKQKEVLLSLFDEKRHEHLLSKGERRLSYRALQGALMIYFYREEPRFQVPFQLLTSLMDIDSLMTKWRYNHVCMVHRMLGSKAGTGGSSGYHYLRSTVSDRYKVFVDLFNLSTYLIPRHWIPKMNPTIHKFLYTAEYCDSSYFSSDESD
Procedure, shortened: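 HEK293 cells stably expressing TDO2 (10000/well, phenol red-free DMEM, 10% FBS) were dosed 4 h after plating and incubated 48 h at 37° C. Supernatant Kyn was measured after TCA precipitation by 4-(dimethylamino)benzaldehyde colour at 480 nm. IC50 came from four-parameter logistic fits.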

[3] = target: T1, IDO1; assay: Hela cell-based IDO1 assay; conditions: Hela cells
Procedure, shortened: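 HeLa cells were seeded at 8000 per well in 96-well plates in phenol red-free DMEM with 10% FBS. After 4 hours, DMSO-diluted compound dilutions were added with IFN-γ (final 100 ng/mL) and 0.4 mM L-Trp, and cells were kept 48 hours at 37 °C, 5% CO2. Supernatant was deproteinised with trichloroacetic acid, and kynurenine was measured at 480 nm after adding 2% 4-(dimethylamino)benzaldehyde. Potency came from four-parameter logistic fits in XLfit.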

T1 sequence (P14902 whole entry): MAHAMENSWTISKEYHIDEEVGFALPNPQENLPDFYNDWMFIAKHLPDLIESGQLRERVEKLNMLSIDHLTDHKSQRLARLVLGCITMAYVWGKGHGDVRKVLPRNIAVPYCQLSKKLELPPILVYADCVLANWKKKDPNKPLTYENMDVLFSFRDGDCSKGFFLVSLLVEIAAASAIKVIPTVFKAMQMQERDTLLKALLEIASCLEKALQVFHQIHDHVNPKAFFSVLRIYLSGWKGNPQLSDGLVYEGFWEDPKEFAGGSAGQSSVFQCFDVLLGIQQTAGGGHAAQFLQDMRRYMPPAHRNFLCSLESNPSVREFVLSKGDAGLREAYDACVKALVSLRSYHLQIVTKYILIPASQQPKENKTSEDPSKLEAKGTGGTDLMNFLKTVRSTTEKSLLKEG

Structure (SMILES) | IC50 [1] [nM] | EC50 [2] [nM] | EC50 [3] [nM]
O[C@@H](c1c(C2CC2)ccc2cncn12)[C@H]1CC[C@H](c2cccc3ccccc32)CC1 (single isomer, unassigned) [Example D135b] | 5200 | > 10000 | 6750
O[C@@H](c1c(C2CC2)ccc2cncn12)[C@H]1CC[C@H](c2ccc(Cl)cc2F)CC1 [Example D131b, (R)-((1r,4R)-4-(4-chloro-2-fluorophenyl)cyclohexyl)(6-cyclopropylimidazo[1,5-a]pyridin-5-yl)methanol hydrochloride] | > 10000 | > 10000 | 6490
O[C@H](c1c(C2CC2)ccn2cncc12)[C@H]1CC[C@H](c2cccc3ncccc32)CC1 (single isomer, unassigned) [Example C126a] | 16 | > 10000 | 20
COc1ccc([C@H]2CC[C@H]([C@H](O)c3c(C4CC4)ccc4cncn34)CC2)c(Cl)c1 (single isomer, unassigned) [Example D147a] | 20 | > 10000 | 198
OC(c1c(C2CC2)ccn2cncc12)C1CCC(c2ccc3c(c2)OCO3)CC1 (stereo not drawn) [Example C123, (4-(benzo[dl][1,3]dioxol-5-yl)cyclohexyl)(7-cyclopropylimidazo[1,5-a]pyridin-8-yl) methanol] | 15 | > 10000 | 372
OC(c1cc(Cl)cc2cncn12)C1CCC(c2cccc3ccccc23)CC1 (stereo not drawn) [Example E103, (7-chloroimidazo[1,5-a]pyridin-5-yl)(4-(naphthalen-1-yl)cyclohexyl)methanol] | 43 | > 10000 | 2320
O[C@@H](c1c(C2CC2)ccc2cncn12)[C@H]1CC[C@H](c2ccc(Cl)c(F)c2)CC1 (single isomer, unassigned) [Example D128b] | > 10000 | > 10000 | 8570
O[C@@H](c1c(C2CC2)ccc2cncn12)[C@H]1CC[C@H](c2cccc3ncccc32)CC1 (single isomer, unassigned) [Example D141b] | 3800 | > 10000 | 7580
COc1cccc([C@H]2CC[C@H]([C@H](O)c3c(C(C)C)ccc4cncn34)CC2)c1 (single isomer, unassigned) [Example D169a] | 15 | > 10000 | 14
COc1ccc(C2CCC(C(O)c3c(C4CC4)ccn4cncc34)CC2)cc1 (racemic) [Example C101, (7-cyclopropylimidazo[1,5-a]pyridin-8-yl)(4-(4-methoxyphenyl)cyclohexyl)methanol] | 41 | > 10000 | 200
Cc1ccccc1C1CCC(C(O)c2c(C3CC3)ccn3cncc23)CC1 (stereo not drawn) [Example C112, (7-cyclopropylimidazo[1,5-a]pyridin-8-yl)(4-(o-tolyl)cyclohexyl)methanol] | 92 | > 10000 | 285
OC(c1c(C2CC2)ccn2cncc12)C1CCN(c2ccc(F)c(F)c2)CC1 (stereo not drawn) [Example C141, (7-cyclopropylimidazo[1,5-a]pyridin-8-yl)(1-(3,4-difluorophenyl)piperidin-4-yl)methanol] | 76 | > 10000 | 105
O[C@@H](c1c(C2CC2)ccc2cncn12)[C@H]1CC[C@H](c2ccc(OC(F)(F)F)cc2)CC1 (single isomer, unassigned) [Example D105b] | > 10000 | > 10000 | 3900
COc1ccc(C2CCC(C(O)c3c(C4CC4)ccc4cncn34)CC2)c(Cl)c1 (stereo not drawn) [Example D147, (4-(2-chloro-4-methoxyphenyl)cyclohexyl)(6-cyclopropylimidazo[1,5-a]pyridin-5-yl)methanol] | 43 | > 10000 | 443
COc1ccc([C@H]2CC[C@H](C(O)c3c(C4CC4)ccc4cncn34)CC2)c2ccccc12 (single isomer, unassigned) [Example D139b] | > 10000 | > 10000 | 4470
